Source: patent US20240374510A1, “COMPOSITIONS, USES AND METHODS FOR TREATMENT OF PERIODONTAL DISEASE” (THE UNIVERSITY OF BRITISH COLUMBIA, priority 2023, published 2024)

Experiments:
ITGB6 [1] = conditions: Bi et al., 2020; cited from earlier work
[2] = system: human gingival epithelial cell line (GEC); assay: MTT test of cell viability and proliferation; type: cell-based; conditions: 24 h, unencapsulated gefitinib
Description: The spontaneously immortalized human gingival epithelial cell line (GEC; (Mäkelä et al., 1998)) was maintained in a humidified incubator at +37° C. with 95% relative humidity and 5% CO2 in DMEM supplemented with 23 mM sodium bicarbonate, 20 mM HEPES, 50 μg/ml streptomycin sulfate, 100 U/ml penicillin and 10% heat-inactivated fetal bovine serum (FBS; Gibco). […]
The MTT test (CellTiter Non-radioactive Cell Proliferation Assay, Promega, Madison, WI, USA) was used to assess the effect of the microparticle formulations on cell viability and proliferation (Twarużek et al., 2018). […] The Solubilization/Stop Solution was then added to the culture wells for 24 h to solubilize the formazan product, and the absorbance at 570 nm was recorded with a microplate reader (iMark, Bio-Rad Laboratories, Hercules, CA, USA). […]
In each test, the cells were exposed to the formulation being tested for 24 h and then analyzed for cell numbers using the MTT test. Absorbance values of the untreated samples in each replicate experiment were set to 1, and the mean±s.e.m. of the relative results of 10-18 replicated experiments is presented. *, relative to untreated cells; +, difference between the same concentration of gefitinib and control microparticles; */+, p<0.05; **/++, p<0.01; ***/+++, p<0.001. […]

[3] = In-vitro release rate of gefitinib by the dialysis sack method; type: physicochemical; conditions: artificial saliva and cell culture medium
Description: The release rate of gefitinib from microparticles as described herein into each of two different liquids was tested. The two test liquids were: artificial saliva (SAE0149, Sigma Aldrich) and Dulbecco's Modified Eagle Medium (DMEM; Gibco, Life Technologies, Inc., Burlington, ON, Canada). These liquids were used to simulate the environment of the oral cavity and body fluid, respectively.
In each of these in-vitro experiments, a dry powder of spray-dried microparticles according to one of the tested formulations was mixed into the applicable test liquid at a concentration of 20 μg dry powder per ml of test liquid.
The in-vitro release behaviors of the formulations identified as (*1), (*2), (*3), and (*4) in Table 2 were each tested by the dialysis sack method (cutoff molecular weight 8 kDa; Spectra Por; Spectrum Chemical Mfg. Corp., New Brunswick, NJ, USA). All samples were incubated at room temperature with continuous shaking at 70 rpm. […] The fluid was analyzed for gefitinib content by HPLC. The release rate of gefitinib from suspensions of dry powders in liquid was calculated from the ratio of released gefitinib to the total gefitinib encapsulated in the powders.
The release rate of unencapsulated gefitinib was measured according to the same protocol described above for the spray-dried microparticles.

ITGB6 [4] = assay: Rescue of β6 integrin gene expression in GECs by RT-qPCR; type: cell-based, human
Description: GECs were seeded into cell culture dishes and allowed to grow to confluency for two days in their complete growth medium. The cells were then rinsed once with PBS and switched to FBS-free DMEM for 2 h in the presence or absence of one of: one of the suspensions of gefitinib-microparticles as above, one of the suspensions of respective control microparticles as above or 0.3 μM gefitinib. HB-EGF (5 ng/ml) and TGF-β1 (2 ng/ml; Millipore) were then added to the cells for a further 24 h.
The cells were then rinsed with PBS and used for RNA isolation and quantitative real-time reverse transcription PCR (RT-qPCR). Briefly, total RNA was extracted using PuroSPIN™ MINI Spin Columns (Luna Nanotech, Inc., Markham, ON, Canada) and the LogSpin method (Yaffe et al., 2012), and RNA concentration and purity were determined by spectrophotometry (NanoDrop One, Thermo Fisher Scientific, Waltham, MA, USA). 1 μg of total RNA was reverse-transcribed into cDNA using the High-Capacity cDNA Reverse Transcription Kit (Applied Biosystems, Thermo Fisher Scientific). […]
Asparagine-linked glycosylation 9 (ALG9) and glyceraldehyde-3-phosphate dehydrogenase (GAPDH) were used as reference genes for the target gene ITGB6 in triplicates. […] The data were analyzed using the Applied Biosystems Relative Quantification Analysis Module. […]

| Molecule | blocking of ITGB6 downregulation by HB-EGF (ITGB6 [1]) | also measured |
| --- | --- | --- |
| C=CC(=O)Nc1cc2c(Nc3ccc(F)c(Cl)c3)ncnc2cc1OCCCN1CCOCC1 [canertinib] | capable of dose-dependently blocking ITGB6 downregulation | – |
| COc1cc2ncnc(Nc3ccc(F)c(Cl)c3)c2cc1NC(=O)/C=C/CN1CCCCC1 [dacomitinib] | capable of dose-dependently blocking ITGB6 downregulation | – |
| C#Cc1cccc(Nc2ncnc3cc(OCCOC)c(OCCOC)cc23)c1 [erlotinib] | capable of dose-dependently blocking ITGB6 downregulation | – |
| COc1cc2ncnc(Nc3ccc(F)c(Cl)c3)c2cc1OCCCN1CCOCC1 [gefitinib] | capable of dose-dependently blocking ITGB6 downregulation | gefitinib concentration giving the corresponding GEC growth inhibition (baseline levels) [2]: 0.3 µM; release rate of gefitinib, in words [3]: quickly released |
| CS(=O)(=O)CCNCc1ccc(-c2ccc3ncnc(Nc4ccc(OCc5cccc(F)c5)c(Cl)c4)c3c2)o1 [lapatinib] | capable of dose-dependently blocking ITGB6 downregulation | – |
| TGF-β1: transforming growth factor-β1, used to upregulate ITGB6 | – | upregulation of ITGB6 expression (ITGB6 [4]; TGF-β1 alone, 2 ng/ml, 24 h): about seven-fold |
| HB-EGF: EGFR ligand heparin-binding EGF-like growth factor (protein, UniProt Q99075 63-148, looked up) Heparin-binding EGF-like …: DLQEADLDLLRVTLSSKPQALATPNKEEHGKRKKKGKGLGKKRDPCLRKYKDFCIHGECKYVKELRAPSCICHPGYHGERCHGLSL | – | reduction of the TGF-β1 upregulation of ITGB6 (ITGB6 [4]; addition of HB-EGF 5 ng/ml to TGF-β1): about 60% |
